Test results published in patent publication US10849912B2, “Method of sensitizing cancer cells to the cytotoxic effects of apoptosis inducing ligands in cancer treatment” (The United States of America, as represented by the …, priority 2016, dated 2020).
Entries after “also recorded” stand apart in the source; their conditions may differ.

Legend:
[1] = tested on: renal carcinoma cell lines (ACHN, SN12C, Caki-1, TK-10, UO-31); assay: Sensitization of renal carcinoma cells to TRAIL apoptosis, percentage decrease in cell number; assay type: cell-based; conditions: for percentage decrease in cell number, agent alone: absence of TRAIL, FIGS. 13B-17B, 13C-17C
From the text: (§1) This example provides a comparison of the activities of compound 1 with the Smac mimetics birinapant, GDC-0152, and LCL-161 and with the Bcl-2 antagonists ABT-199 and ABT-737 for sensitization of renal carcinoma and melanoma cells to TRAIL apoptosis.
(§2) The results for compound 1 are shown graphically in FIGS. 13A-22A. The results for Smac mimetics birinapant, GDC-0152, and LCL-161 are shown graphically in FIGS. 13B-22B. The results for Bcl-2 antagonists ART-199 and ABT-737 are shown graphically in FIGS. 13C-22C, FIGS. 13A-22A, 13B-22B, and 13C-22C depict the percentage decrease in cell number as a function of concentration. For FIGS. 13B-22B and 13C-22C, the dose response curve was obtained for one of the listed agents.

[2] = tested on: melanoma cells (M14, SK-MEL-28, UACC-62, SK-MEL-5, MALME-3M); assay: Sensitization of melanoma cells to TRAIL apoptosis, percentage decrease in cell number; assay type: cell-based; conditions: for percentage decrease in cell number, agent alone: absence of TRAIL, FIGS. 18B-22B, 18C-22C
From the text: as §1, §2

SK MEL28 melanoma cells [3] = assay: Titration of sensitization to TRAIL, MTS cell viability; assay type: cell-based, human; conditions: compound 0.97 nM-2000 nM for 3 or 24 h, then 10 ng/ml TRAIL for 24 h
Description: (§3) For all experiments, cells (ACHN (renal carcinoma), M14, SK MEL28, and Malme (human melanoma lines)) were plated at a concentration of 5000 cells/well overnight. All treatments were carried out the following day.
(§4) For titration experiments in the presence or absence of TRAIL, cells were treated with various doses of compound 8 (0.97 nM-2000 nM) for 3 or 24 h followed by 10 ng/ml of recombinant TRAIL for 24 h. Cell viability was assessed by addition of MTS during the last four hours of TRAIL treatment. The results with SK MEL28, M14, and Malme cells are depicted in FIGS. 7A-7C, respectively.

Malme 3M melanoma cells = assay: as above; assay type: cell-based, human; conditions: Malme (Malme 3M); compound 0.97 nM-2000 nM for 3 or 24 h, then 10 ng/ml TRAIL for 24 h
Description: as §3, §4
(§5) Titration experiments were conducted as described in Example 5.

M14 melanoma cells = assay: as above; assay type: cell-based, human; conditions: compound 0.97 nM-2000 nM for 3 or 24 h, then 10 ng/ml TRAIL for 24 h
Description: as §3, §4, §5

SKMEL28 melanoma cells = assay: Effect of pan caspase inhibitor ZVAD-FMK on growth inhibition by poly IC plus compound, MTS; assay type: cell-based, human; conditions: compound 1000 nM for 16-18 h, ZVAD-FMK 40 μM for 2 h, poly IC 20-24 h
Description: To assess the effects of pan caspase inhibitor ZVAD, SKMEL28 melanoma cells were treated with compounds 9 and 1 for 16-18 h. Subsequently, ZVAD-FMK (40 μM) or DMSO was added for 2 h followed by 20-24 h incubation in the presence or absence of poly IC. Cell viability was assessed by addition of MTS during the last four hours of poly IC treatment.
The growth inhibition as a function of poly IC concentration at 1000 nM concentrations of compounds 9 and 1 was determined, and the results shown in FIGS. 10A and 10B, respectively.

human M14 melanoma = assay: Xenograft model of human M14 melanoma, intratumoral compound; assay type: in vivo, athymic nude mice; conditions: 20 mg/Kg, once per week for four weeks
Description: Female nude athymic mice were obtained from Charles River Laboratory. All mice were kept under specific pathogen-free conditions with water and food given ad libitum. All experiments with mice were performed in compliance with the principles and procedures outlined in the National Institutes of Health Guide for the Care and Use of Animals and were approved by the National Cancer Institute at Frederick Animal Care and Use Committee.
For in vivo treatments with compounds 9 and 1, compound 9 and compound 1 stock solutions (0.5M and 0.25M in DMSO respectively) were diluted in 33% Trappsol and DMSO at a ratio of 7:1 and administered intratumorally or at the base of tumor in a volume of 20 ul at a dose of 20 mg/Kg of body weight. […]
Mice (nude athymic, female, 6-8-week old, n=5), were implanted subcutaneously with 0.2 ml of M14 melanoma cells (1×10^6/mouse) into the right flank. […] The appearance and growth of tumors were monitored twice every week. The greatest longitudinal diameter (length) and the greatest transverse diameter (width) of a palpable tumor were measured to the nearest 0.1 mm using a caliper. Tumor volume (mm^3) was calculated by the ellipsoidal formula Tumor volume=[…]. […]

SK MEL28 melanoma cells [4] = assay: Effect of bafilomycin on sensitization to poly IC, MTS cell viability; assay type: cell-based, human; conditions: 50 nM bafilomycin A, poly IC 36-48 h
Description: as §3
To inhibit TLR 3 signaling, cells were treated with compound 9, compound 1, or compound 10 for 4 hours followed by addition of 50 nM of Balfilomycin A or DMSO for 2.5 h. Subsequently poly IC was added for 36-48 h and cell viability was assessed by addition of MTS during the last four hours of Poly IC treatment. The results for compounds 9, 1, and 10 are depicted in FIG. 6.

cFLIP = assay: Western blot of cFLIP levels in ACHN cells treated with compound, with or without poly IC; assay type: cell-based; conditions: compound 125 nM-1 μM overnight, FIGS. 5A and 5B
Description: (§6) ACHN cells were grown in RPMI (RPMI, 5% FBS, Pen-strep, NEAA, HEPES, Glutamax, Sodium Pyruvate, 2ME), 2×10^6 cells/well were plated in 6 well plates and grown overnight, on day 2 compound 9 or compound 1 were added, including duplicate plates and incubated overnight. On day 3 either media or 10 ug/ml polyIC was added for 3 hours. Cells were lysed in RIPA buffer (30 mM Tris-HCL pH 7.5, 150 mM NaCl, 10% glycerol, 1% Triton X-100) supplemented with Pierce Halt Protease and Phosphatase Inhibitor and 40 μM ZVAD, the RIPA buffer also contained Pierce Universal Nuclease. Protein concentrations were measured using the Pierce BCA Protein Assay (Thermo Fisher Scientific, Waltham, Mass.), Twenty micrograms of each sample was run on a Bolt Gel (Thermo Fisher Scientific), transferred to a PVDF membrane using the BioRad Trans-Blot Turbo Transfer System (BioRad, Hercules, Calif.), briefly placed in Methanol, dried, rehydrated, and blocked in Pierce Start Block buffer. […]

caspase-8 = assay: Western blot of caspase-8 activation in ACHN cells treated with compound, with or without poly IC; assay type: cell-based; conditions: compound 125 nM-1 μM overnight, then 10 ug/ml polyIC for 3 hours
Description: as §6

CN(C)CC[C@H](CSc1ccccc1)Nc1ccc(S(=O)(=O)NC(=O)c2ccc(N3CCN(Cc4ccccc4-c4ccc(Cl)cc4)CC3)cc2)cc1[N+](=O)[O-] [ABT-737]
percentage decrease in cell number, agent alone [1]: little to no response due to concentration | percentage decrease in cell number, agent alone [2]: little to no response due to concentration

biotinylated derivative of 4β-hydroxywithanolide E [compound 8]
sensitization to apoptosis by TRAIL (SK MEL28 melanoma cells [3]): sensitized | sensitization to apoptosis by TRAIL (Malme 3M melanoma cells): sensitized; also recorded: more potent than compound 1 at lower concentrations | sensitization to apoptosis by TRAIL (M14 melanoma cells): sensitized; also recorded: more potent than compound 1 at lower concentrations

CN[C@@H](C)C(=O)N[C@H](C(=O)N1CCC[C@H]1C(=O)Nc1snnc1-c1ccccc1)C1CCCCC1 [GDC-0152]
percentage decrease in cell number, agent alone [1]: little to no response due to concentration | percentage decrease in cell number, agent alone [2]: little to no response due to concentration

CC1(C)CCC(CN2CCN(c3ccc(C(=O)NS(=O)(=O)c4ccc(NCC5CCOCC5)c([N+](=O)[O-])c4)c(Oc4cnc5[nH]ccc5c4)c3)CC2)=C(c2ccc(Cl)cc2)C1 [ABT-199]
percentage decrease in cell number, agent alone [1]: little to no response due to concentration | percentage decrease in cell number, agent alone [2]: little to no response due to concentration

CN[C@@H](C)C(=O)N[C@H](C(=O)N1CCC[C@H]1c1nc(C(=O)c2ccc(F)cc2)cs1)C1CCCCC1 [LCL-161]
percentage decrease in cell number, agent alone [1]: little to no response due to concentration | percentage decrease in cell number, agent alone [2]: little to no response due to concentration

CC[C@H](NC(=O)[C@H](C)NC)C(=O)N1C[C@@H](O)C[C@H]1Cc1c(-c2[nH]c3cc(F)ccc3c2C[C@@H]2C[C@H](O)CN2C(=O)[C@H](CC)NC(=O)[C@H](C)NC)[nH]c2cc(F)ccc12 [birinapant]
percentage decrease in cell number, agent alone [1]: little to no response due to concentration | percentage decrease in cell number, agent alone [2]: little to no response due to concentration

CC1=C(C)C(=O)OC([C@](C)(O)[C@]2(O)CC[C@@]3(O)C4CC=C5C(=O)C=CC(=O)[C@]5(C)C4CC[C@]23C)C1 (stereo partly shown)
melting point: 176 to 178 °C

CC(=O)OC[C@]12CC[C@H]3[C@@H](C[C@H]4O[C@]45CC=CC(=O)[C@]35C)[C@]1(O)CC[C@@]2(O)[C@@](C)(O)[C@H]1CC(C)=C(C)C(=O)O1 [compound 1, physachenolide C]
reduction in cell number by poly IC in combination with compound, in presence of ZVAD-FMK (SKMEL28 melanoma cells): completely blocked | observation at the tumor site accompanying decrease in tumor burden (human M14 melanoma): massive tumor destruction and scabbing at the tumor site | tumor growth and volume (tumor burden) (human M14 melanoma; versus vehicle control, ****P<0.0001, 20 mg/kg): significant reduction in tumor growth and volume | sensitization to TRAIL apoptosis ([1]; 50 ng/mL TRAIL): superior sensitizer | apoptosis by the compound and poly IC combination after incubation with bafilomycin-A1 (SK MEL28 melanoma cells [4]): significantly reduced subsequent apoptosis | reducing the levels of cFLIPL+S (cFLIP): more active than compound 9 | promoting caspase-8 activation in response to subsequent exposure to poly IC (caspase-8): more active than compound 9 | sensitization to TRAIL apoptosis ([2]; 25 ng/mL TRAIL): significant activity
